Test results taken from US3937657A, “Electrowinning of copper” (Anumin Pty. Limited, priority 1971, dated 1976).
Read-outs that look alike come from different tables or passages of the source.

Assays:
[1] = Oxidation of stirred cuprous sulphate solutions in acidified acetonitrile-water mixtures under oxygen (Table 2); assay type: physicochemical; details: 1.5% wt Cu^+, O2 1 atm
Excerpt: Effect of Nitrile and Acid Concentration.

[2] = 2 molar sulphuric acid, 100°C; reported; cited from earlier work
[3] = acidified acetonitrile-water (10.8% ch3cn)
Description: Solubilities of salts in acidified [2% v/v H2 SO4 ] acetonitrile-water mixtures at 25°C.

[4] = Solubility of sulphur in refluxing acetonitrile-water-sulphuric acid; assay type: physicochemical; details: refluxing 50% acetonitrile, 45% water, 5% sulphuric acid
Description: c. Sulphur dissolved in refluxing 50% acetonitrile, 45% water, 5% sulphuric acid to the extent of about 0.05 gms/100 ml.

[5] = Hydrolysis/decomposition of nitriles in acidified solutions; assay type: physicochemical
[6] = Solubilities of salts in acidified [2% v/v H2SO4] acetonitrile-water mixtures at 25°C (Table 3); details: 2% v/v H2SO4, water

## O=S(=O)([O-])[O-].[Cu+].[Cu+] [Cu2 SO4, cuprous sulphate]
[1]; 10% vol CH3CN, 5% vol H2SO4, 25°C
  Time for 30% of theoretical O2 uptake: 95 min
[1]; 30% vol CH3CN, 2.5% vol H2SO4, 25°C
  Time for 30% of theoretical O2 uptake: 330 min
[1]; 30% vol CH3CN, 5% vol H2SO4, 25°C
  Time for 30% of theoretical O2 uptake: 300 min
[1]; 30% vol CH3CN, 10% vol H2SO4, 25°C
  Time for 30% of theoretical O2 uptake: 375 min
[1]; 50% vol CH3CN, 5% vol H2SO4, 25°C
  Time for 30% of theoretical O2 uptake: 340 min

## N#CCCO [2-hydroxycyanoethane]
[2]
  rate of hydrolysis compared with acetonitrile: comparable rate

## O.O.O.O.O.O.O.O.O.O=S(=O)([O-])[O-].O=S(=O)([O-])[O-].O=S(=O)([O-])[O-].[Fe+3].[Fe+3] [Fe2 (SO4).9H2 O]
[3]
  Solubility (MX): 325 mg/mL

## S1SSSSSSS1 [Sulphur, sulphur]
[4]
  Sulphur dissolved: about 0.05 gms/100 ml

## N#CCO [cyanohydrin of formaldehyde]
[5]; water and suitable acids, cuprous salts
  decomposition in the nitrile suitability tests: decomposed rapidly

## O.O.O.O.O.O.O.O=S(=O)([O-])[O-].[Ni+2] [NiSO4.7H2 O]
[6]; 16.6% v/v CH3CN
  Solubility (MX): 231 mg/mL

## CC#N [Acetonitrile, acetonitrile]
[5]; 2 molar sulphuric acid, sealed tube, 100°C
  hydrolysed to acetic acid and ammonium acetate within: ≤ 24 h
[5]; acetonitrile, water, cuprous sulphate and 1N sulphuric acid, sealed tubes, 50°C, 2 months
  loss of acetonitrile on heating: had not lost detectable amounts

## O=S(=O)([O-])[O-].[Cd+2] [Cd SO4.8H2 O]
[6]; 15% v/v CH3CN
  Solubility (MX): 492 mg/mL
